Measured values: paper PMC4710522, “A Novel Triazolopyridine-Based Spleen Tyrosine Kinase Inhibitor That Arrests Joint Inflammation” (PLoS ONE, 2016)
pIC50: −log10 of the molar value.

Tests used:
Test in all cases: SelectScreen kinase assay
Assay type in all cases: biochemical
cKit_h = cKit_h (Homo sapiens, UniProt P10721)
How it was run: (§1)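 With compound constant at 3 µM, kinase activity was determined by Z'-Lyte or Adapta at KM ATP or at 10 or 100 µM ATP. Uninhibited DMSO-only wells defined 100% control.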

PKC-mu_h = target: T1, PKC-mu_h (Homo sapiens, UniProt Q15139); settings: KM ATP, read-out: % control
T1 construct: purchased Life Technologies (Invitrogen) SelectScreen, Z'-LYTE / Adapta
How it was run: as §1

MARK4_h = target: T2, MARK4_h (Homo sapiens, UniProt Q96L34); settings: KM ATP, read-out: % control
T2 construct: purchased Life Technologies (Invitrogen) SelectScreen, Z'-LYTE / Adapta
How it was run: as §1

DYRK1B_h = target: T3, DYRK1B_h (Homo sapiens, UniProt Q9Y463); settings: KM ATP, read-out: % control
T3 construct: purchased Life Technologies (Invitrogen) SelectScreen, Z'-LYTE / Adapta
How it was run: as §1

Fms_h = Fms_h (Homo sapiens, UniProt P07333)
Sequence of Fms_h (P07333 20-972): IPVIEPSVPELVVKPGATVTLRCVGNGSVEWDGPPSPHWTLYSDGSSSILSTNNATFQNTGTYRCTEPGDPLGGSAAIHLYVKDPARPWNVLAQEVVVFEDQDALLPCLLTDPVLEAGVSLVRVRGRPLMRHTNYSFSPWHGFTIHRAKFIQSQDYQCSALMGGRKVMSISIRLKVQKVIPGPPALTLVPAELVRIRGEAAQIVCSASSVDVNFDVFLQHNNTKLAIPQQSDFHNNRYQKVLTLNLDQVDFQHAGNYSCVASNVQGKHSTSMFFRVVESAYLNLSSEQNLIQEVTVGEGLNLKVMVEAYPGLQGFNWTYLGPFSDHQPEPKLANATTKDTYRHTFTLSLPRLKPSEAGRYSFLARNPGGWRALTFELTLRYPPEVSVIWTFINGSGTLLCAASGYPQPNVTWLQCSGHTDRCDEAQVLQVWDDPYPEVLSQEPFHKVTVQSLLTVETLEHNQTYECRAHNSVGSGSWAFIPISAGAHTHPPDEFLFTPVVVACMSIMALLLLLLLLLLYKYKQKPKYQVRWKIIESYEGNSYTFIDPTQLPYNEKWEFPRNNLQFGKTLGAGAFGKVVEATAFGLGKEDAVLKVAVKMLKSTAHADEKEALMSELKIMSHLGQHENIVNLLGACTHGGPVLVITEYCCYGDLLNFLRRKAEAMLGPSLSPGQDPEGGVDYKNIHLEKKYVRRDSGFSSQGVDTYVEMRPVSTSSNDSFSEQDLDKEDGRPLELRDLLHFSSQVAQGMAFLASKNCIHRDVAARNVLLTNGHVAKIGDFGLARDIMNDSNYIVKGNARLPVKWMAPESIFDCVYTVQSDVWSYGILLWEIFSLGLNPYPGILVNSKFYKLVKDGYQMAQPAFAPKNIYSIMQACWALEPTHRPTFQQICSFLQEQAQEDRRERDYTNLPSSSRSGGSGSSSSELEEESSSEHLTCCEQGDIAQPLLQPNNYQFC
How it was run: as §1

Flt3_D835Y_h = target: T4, Flt3_D835Y_h (Homo sapiens, UniProt P36888, D835Y); settings: KM ATP, read-out: % control
T4 construct: purchased Life Technologies (Invitrogen) SelectScreen, Z'-LYTE / Adapta
How it was run: as §1

ROCK-I_h = target: T5, ROCK-I_h (Homo sapiens, UniProt Q13464); settings: KM ATP, read-out: % control
T5 construct: purchased Life Technologies (Invitrogen) SelectScreen, Z'-LYTE / Adapta
How it was run: as §1

p38-delta_h = target: T6, p38-delta_h (Homo sapiens, UniProt O15264); settings: KM ATP, read-out: % control
T6 construct: purchased Life Technologies (Invitrogen) SelectScreen, Z'-LYTE / Adapta
How it was run: as §1

Hgk_h = target: T7, Hgk_h (Homo sapiens, UniProt O95819); settings: KM ATP, read-out: % control
T7 construct: purchased Life Technologies (Invitrogen) SelectScreen, Z'-LYTE / Adapta
How it was run: as §1

NEK9_h = target: T8, NEK9_h (Homo sapiens, UniProt Q8TD19); settings: KM ATP, read-out: % control
T8 construct: purchased Life Technologies (Invitrogen) SelectScreen, Z'-LYTE / Adapta
How it was run: as §1

JNK2-alpha2_h = target: T9, JNK2-alpha2_h (Homo sapiens, UniProt P45984); settings: 100 µM ATP, read-out: % control
T9 construct: purchased Life Technologies (Invitrogen) SelectScreen, Z'-LYTE / Adapta
T9 sequence (P45984 whole entry): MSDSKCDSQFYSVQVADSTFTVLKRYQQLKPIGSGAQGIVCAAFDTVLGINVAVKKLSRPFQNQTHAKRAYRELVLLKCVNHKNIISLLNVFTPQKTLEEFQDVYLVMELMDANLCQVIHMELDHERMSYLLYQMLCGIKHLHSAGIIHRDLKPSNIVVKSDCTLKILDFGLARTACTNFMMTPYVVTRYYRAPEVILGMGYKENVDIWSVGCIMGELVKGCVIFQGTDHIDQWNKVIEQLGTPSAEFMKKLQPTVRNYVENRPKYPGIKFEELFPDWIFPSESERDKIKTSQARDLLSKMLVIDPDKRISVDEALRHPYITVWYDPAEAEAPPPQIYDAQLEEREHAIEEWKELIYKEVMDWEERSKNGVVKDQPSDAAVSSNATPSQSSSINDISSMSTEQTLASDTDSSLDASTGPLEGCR
How it was run: as §1

Abl_h = target: T10, Abl_h (Homo sapiens, UniProt P00519); settings: KM ATP, read-out: % control
T10 construct: purchased Life Technologies (Invitrogen) SelectScreen, Z'-LYTE / Adapta
How it was run: as §1

Plk3_h = target: T11, Plk3_h (Homo sapiens, UniProt Q9H4B4); settings: KM ATP, read-out: % control
T11 construct: purchased Life Technologies (Invitrogen) SelectScreen, Z'-LYTE / Adapta
How it was run: as §1

LYN-A_h = LYN-A_h (Homo sapiens, UniProt P07948)
Sequence of LYN-A_h (P07948 whole entry): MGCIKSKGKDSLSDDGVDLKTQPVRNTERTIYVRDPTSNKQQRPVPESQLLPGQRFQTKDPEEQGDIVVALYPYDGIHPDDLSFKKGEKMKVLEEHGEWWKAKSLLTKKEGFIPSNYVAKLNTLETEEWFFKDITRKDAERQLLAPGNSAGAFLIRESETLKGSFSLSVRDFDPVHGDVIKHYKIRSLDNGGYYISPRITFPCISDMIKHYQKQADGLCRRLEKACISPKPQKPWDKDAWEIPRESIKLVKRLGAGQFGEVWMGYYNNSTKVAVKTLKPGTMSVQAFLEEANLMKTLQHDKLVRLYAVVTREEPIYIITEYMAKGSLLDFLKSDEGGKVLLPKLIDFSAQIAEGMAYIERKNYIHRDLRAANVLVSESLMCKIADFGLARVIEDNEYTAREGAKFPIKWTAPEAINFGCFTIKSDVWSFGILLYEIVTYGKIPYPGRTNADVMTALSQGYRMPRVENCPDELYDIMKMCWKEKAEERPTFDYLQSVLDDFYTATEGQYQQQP
How it was run: as §1

Mer_h = target: T12, Mer_h (Homo sapiens, UniProt Q12866); settings: KM ATP, read-out: % control
T12 construct: purchased Life Technologies (Invitrogen) SelectScreen, Z'-LYTE / Adapta
How it was run: as §1

PAK4_h = target: T13, PAK4_h (Homo sapiens, UniProt O96013); settings: KM ATP, read-out: % control
T13 construct: purchased Life Technologies (Invitrogen) SelectScreen, Z'-LYTE / Adapta
How it was run: as §1

PTK2B_h = target: T14, PTK2B_h (Homo sapiens, UniProt Q14289); settings: KM ATP, read-out: % control
T14 construct: purchased Life Technologies (Invitrogen) SelectScreen, Z'-LYTE / Adapta
How it was run: as §1

PrKX_h = target: T15, PrKX_h (Homo sapiens, UniProt P51817); settings: KM ATP, read-out: % control
T15 construct: purchased Life Technologies (Invitrogen) SelectScreen, Z'-LYTE / Adapta
T15 sequence (P51817 whole entry): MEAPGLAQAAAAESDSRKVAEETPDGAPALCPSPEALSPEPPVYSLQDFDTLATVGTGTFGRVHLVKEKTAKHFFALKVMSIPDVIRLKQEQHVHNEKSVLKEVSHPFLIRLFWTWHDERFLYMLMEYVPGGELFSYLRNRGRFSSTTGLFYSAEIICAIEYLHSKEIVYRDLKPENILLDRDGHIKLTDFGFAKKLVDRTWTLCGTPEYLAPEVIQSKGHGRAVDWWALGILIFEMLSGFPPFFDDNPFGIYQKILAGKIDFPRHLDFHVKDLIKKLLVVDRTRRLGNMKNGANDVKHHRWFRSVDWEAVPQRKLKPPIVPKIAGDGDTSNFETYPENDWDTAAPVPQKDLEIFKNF
How it was run: as §1

NEK6_h = target: T16, NEK6_h (Homo sapiens, UniProt Q9HC98); settings: KM ATP, read-out: % control
T16 construct: purchased Life Technologies (Invitrogen) SelectScreen, Z'-LYTE / Adapta
How it was run: as §1

CLK2_h = target: T17, CLK2_h (Homo sapiens, UniProt P49760); settings: KM ATP, read-out: % control
T17 construct: purchased Life Technologies (Invitrogen) SelectScreen, Z'-LYTE / Adapta
How it was run: as §1

PKB-beta_h = target: T18, PKB-beta_h (Homo sapiens, UniProt P31751); settings: KM ATP, read-out: % control
T18 construct: purchased Life Technologies (Invitrogen) SelectScreen, Z'-LYTE / Adapta
How it was run: as §1

Met_M1250T_h = target: T19, Met_M1250T_h (Homo sapiens, UniProt P08581, M1250T); settings: KM ATP, read-out: % control
T19 construct: purchased Life Technologies (Invitrogen) SelectScreen, Z'-LYTE / Adapta
T19 sequence (P08581 25-1390 M1250T): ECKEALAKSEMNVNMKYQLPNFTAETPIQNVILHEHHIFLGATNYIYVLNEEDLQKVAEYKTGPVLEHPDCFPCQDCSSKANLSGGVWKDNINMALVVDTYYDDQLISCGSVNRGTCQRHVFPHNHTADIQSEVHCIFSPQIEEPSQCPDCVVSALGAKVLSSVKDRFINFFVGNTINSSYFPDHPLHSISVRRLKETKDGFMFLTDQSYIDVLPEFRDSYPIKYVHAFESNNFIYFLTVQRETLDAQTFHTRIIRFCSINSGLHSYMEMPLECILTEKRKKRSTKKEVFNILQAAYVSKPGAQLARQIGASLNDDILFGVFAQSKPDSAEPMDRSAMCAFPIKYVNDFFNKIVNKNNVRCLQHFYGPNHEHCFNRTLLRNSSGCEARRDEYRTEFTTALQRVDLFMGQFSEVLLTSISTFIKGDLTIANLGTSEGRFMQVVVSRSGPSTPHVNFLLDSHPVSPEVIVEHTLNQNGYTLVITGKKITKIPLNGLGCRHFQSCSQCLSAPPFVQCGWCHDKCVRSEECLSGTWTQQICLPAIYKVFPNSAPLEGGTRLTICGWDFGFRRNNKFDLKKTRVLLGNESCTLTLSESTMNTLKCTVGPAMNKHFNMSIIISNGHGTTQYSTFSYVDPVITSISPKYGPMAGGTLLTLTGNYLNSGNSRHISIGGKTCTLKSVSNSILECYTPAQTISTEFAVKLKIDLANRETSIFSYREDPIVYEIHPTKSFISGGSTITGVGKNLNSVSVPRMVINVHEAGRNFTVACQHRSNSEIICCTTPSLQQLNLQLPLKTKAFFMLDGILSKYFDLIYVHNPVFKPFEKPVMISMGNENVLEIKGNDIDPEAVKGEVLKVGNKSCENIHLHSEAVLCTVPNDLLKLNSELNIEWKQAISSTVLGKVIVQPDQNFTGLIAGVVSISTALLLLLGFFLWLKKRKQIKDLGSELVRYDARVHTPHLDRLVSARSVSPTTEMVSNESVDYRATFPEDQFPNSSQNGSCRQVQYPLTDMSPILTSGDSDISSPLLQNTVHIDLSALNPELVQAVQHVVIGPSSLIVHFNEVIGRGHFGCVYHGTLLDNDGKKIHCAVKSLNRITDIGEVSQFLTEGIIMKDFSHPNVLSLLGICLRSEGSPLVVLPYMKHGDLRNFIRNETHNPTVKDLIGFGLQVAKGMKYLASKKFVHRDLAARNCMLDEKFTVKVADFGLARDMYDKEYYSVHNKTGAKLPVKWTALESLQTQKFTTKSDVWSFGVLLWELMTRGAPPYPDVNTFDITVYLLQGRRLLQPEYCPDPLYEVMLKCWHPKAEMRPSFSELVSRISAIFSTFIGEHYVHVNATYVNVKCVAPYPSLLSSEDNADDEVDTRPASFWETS
How it was run: as §1

EGFR_L861Q_h = target: T20, EGFR_L861Q_h (Homo sapiens, UniProt P00533, L861Q); settings: KM ATP, read-out: % control
T20 construct: purchased Life Technologies (Invitrogen) SelectScreen, Z'-LYTE / Adapta
How it was run: as §1

CK1-delta_h = target: T21, CK1-delta_h (Homo sapiens, UniProt P48730); settings: KM ATP, read-out: % control
T21 construct: purchased Life Technologies (Invitrogen) SelectScreen, Z'-LYTE / Adapta
How it was run: as §1

STK25_h = target: T22, STK25_h (Homo sapiens, UniProt O00506); settings: KM ATP, read-out: % control
T22 construct: purchased Life Technologies (Invitrogen) SelectScreen, Z'-LYTE / Adapta
How it was run: as §1

MST4_h = target: T23, MST4_h (Homo sapiens, UniProt Q9P289); settings: KM ATP, read-out: % control
T23 construct: purchased Life Technologies (Invitrogen) SelectScreen, Z'-LYTE / Adapta
T23 sequence (Q9P289 whole entry): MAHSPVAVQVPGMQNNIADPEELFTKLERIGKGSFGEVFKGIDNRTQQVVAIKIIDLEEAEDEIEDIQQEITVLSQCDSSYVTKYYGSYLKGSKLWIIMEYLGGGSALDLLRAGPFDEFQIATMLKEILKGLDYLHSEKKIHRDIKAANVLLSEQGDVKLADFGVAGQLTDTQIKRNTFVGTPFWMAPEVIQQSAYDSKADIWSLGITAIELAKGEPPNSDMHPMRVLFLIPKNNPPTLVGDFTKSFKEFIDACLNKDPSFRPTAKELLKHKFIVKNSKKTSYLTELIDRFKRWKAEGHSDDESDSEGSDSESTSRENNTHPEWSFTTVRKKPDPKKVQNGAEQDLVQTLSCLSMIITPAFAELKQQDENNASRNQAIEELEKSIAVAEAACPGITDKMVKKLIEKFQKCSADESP
How it was run: as §1

ALK_h = target: T24, ALK_h (Homo sapiens, UniProt Q9UM73); settings: KM ATP, read-out: % control
T24 construct: purchased Life Technologies (Invitrogen) SelectScreen, Z'-LYTE / Adapta
How it was run: as §1

FAK_h = target: T25, FAK_h (Homo sapiens, UniProt Q05397); settings: KM ATP, read-out: % control
T25 construct: purchased Life Technologies (Invitrogen) SelectScreen, Z'-LYTE / Adapta
How it was run: as §1

PAK1_h = target: T26, PAK1_h (Homo sapiens, UniProt Q13153); settings: KM ATP, read-out: % control
T26 construct: purchased Life Technologies (Invitrogen) SelectScreen, Z'-LYTE / Adapta
How it was run: as §1

MELK_h = target: T27, MELK_h (Homo sapiens, UniProt Q14680); settings: KM ATP, read-out: % control
T27 construct: purchased Life Technologies (Invitrogen) SelectScreen, Z'-LYTE / Adapta
How it was run: as §1

CDK9_h = target: T28, CDK9_h (Homo sapiens, UniProt P50750); settings: KM ATP, read-out: % control
T28 construct: purchased Life Technologies (Invitrogen) SelectScreen, Z'-LYTE / Adapta
How it was run: as §1

EphA8_h = target: T29, EphA8_h (Homo sapiens, UniProt P29322); settings: KM ATP, read-out: % control
T29 construct: purchased Life Technologies (Invitrogen) SelectScreen, Z'-LYTE / Adapta
How it was run: as §1

Rsk4_h = target: T30, Rsk4_h (Homo sapiens, UniProt Q9UK32); settings: KM ATP, read-out: % control
T30 construct: purchased Life Technologies (Invitrogen) SelectScreen, Z'-LYTE / Adapta
How it was run: as §1

[1] = 3 µM, KM ATP, read-out: % control
[2] = 10-point dose-response, commercial vendor

Sequence of cKit_h (P10721 26-976): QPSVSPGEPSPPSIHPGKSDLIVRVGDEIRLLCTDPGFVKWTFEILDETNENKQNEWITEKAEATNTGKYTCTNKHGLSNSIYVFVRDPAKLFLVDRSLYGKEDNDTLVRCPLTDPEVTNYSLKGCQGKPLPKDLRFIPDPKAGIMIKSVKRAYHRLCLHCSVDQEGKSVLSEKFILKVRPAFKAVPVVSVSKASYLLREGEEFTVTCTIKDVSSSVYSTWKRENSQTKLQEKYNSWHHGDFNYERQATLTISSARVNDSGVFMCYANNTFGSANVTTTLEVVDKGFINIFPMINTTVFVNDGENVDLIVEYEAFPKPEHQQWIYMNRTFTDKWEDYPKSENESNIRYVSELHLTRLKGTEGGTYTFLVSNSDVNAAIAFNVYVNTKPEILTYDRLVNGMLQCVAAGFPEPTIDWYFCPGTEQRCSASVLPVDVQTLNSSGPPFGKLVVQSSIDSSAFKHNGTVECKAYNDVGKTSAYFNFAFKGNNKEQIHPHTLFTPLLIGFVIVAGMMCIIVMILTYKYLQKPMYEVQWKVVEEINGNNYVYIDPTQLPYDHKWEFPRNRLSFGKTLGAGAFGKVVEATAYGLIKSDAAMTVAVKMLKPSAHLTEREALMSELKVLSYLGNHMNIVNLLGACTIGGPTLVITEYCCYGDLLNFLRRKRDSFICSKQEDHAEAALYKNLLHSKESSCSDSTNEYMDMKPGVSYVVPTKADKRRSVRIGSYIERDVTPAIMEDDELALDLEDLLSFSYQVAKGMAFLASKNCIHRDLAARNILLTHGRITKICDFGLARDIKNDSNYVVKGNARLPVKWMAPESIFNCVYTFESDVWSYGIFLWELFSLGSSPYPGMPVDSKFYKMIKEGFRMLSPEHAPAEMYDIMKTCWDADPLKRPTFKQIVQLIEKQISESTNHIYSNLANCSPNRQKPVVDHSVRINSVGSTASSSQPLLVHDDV

Q: Which results are given for c1cc(CC2CCOCC2)n2nc(Nc3ccc4c(NC5CCOCC5)n[nH]c4c3)nc2c1 [CC-509, [3-(2H-3,4,5,6-tetrahydropyran-4-ylamino)(1H-indazol-6-yl)][5-(2H-3,4,5,6-tetrahydropyran-4-ylmethyl)(2H-1,2,4-triazolo[1,5-a]pyridin-2-yl)]amine]?
A: remaining activity at 3 µM (cKit_h; [1]): 66%; pIC50 (cKit_h; [2]): 4.96; remaining activity at 3 µM (PKC-mu_h): 34%; remaining activity at 3 µM (MARK4_h): 33%; remaining activity at 3 µM (DYRK1B_h): 95%; remaining activity at 3 µM (Fms_h; [1]): 2%; pIC50 (Fms_h; [2]): 8.06; remaining activity at 3 µM (Flt3_D835Y_h): -1%; remaining activity at 3 µM (ROCK-I_h): 70%; remaining activity at 3 µM (p38-delta_h): 82%; remaining activity at 3 µM (Hgk_h): 62%; remaining activity at 3 µM (NEK9_h): 95%; remaining activity at 3 µM (JNK2-alpha2_h): 88%; remaining activity at 3 µM (Abl_h): 19%; remaining activity at 3 µM (Plk3_h): 88%; remaining activity at 3 µM (LYN-A_h; [1]): 54%; pIC50 (LYN-A_h; [2]): 5.45; remaining activity at 3 µM (Mer_h): 90%; remaining activity at 3 µM (PAK4_h): 87%; remaining activity at 3 µM (PTK2B_h): 50%; remaining activity at 3 µM (PrKX_h): 95%; remaining activity at 3 µM (NEK6_h): 99%; remaining activity at 3 µM (CLK2_h): 50%; remaining activity at 3 µM (PKB-beta_h): 98%; remaining activity at 3 µM (Met_M1250T_h): 74%; remaining activity at 3 µM (EGFR_L861Q_h): 97%; remaining activity at 3 µM (CK1-delta_h): 88%; remaining activity at 3 µM (STK25_h): 97%; remaining activity at 3 µM (MST4_h): 99%; remaining activity at 3 µM (ALK_h): 45%; remaining activity at 3 µM (FAK_h): 43%; remaining activity at 3 µM (PAK1_h): 94%; remaining activity at 3 µM (MELK_h): 10%; remaining activity at 3 µM (CDK9_h): 31%; remaining activity at 3 µM (EphA8_h): 91%; remaining activity at 3 µM (Rsk4_h): 32%
